# Key:
# [1] = tested on: B-hB7-H3 MC38 transplantation tumours; assay: B-hB7-H3 MC38 transplantation tumour model, ADC1 in combination with anti-PD-L1 drug; assay type: in vivo, C57BL/6 mice; settings: G4: anti-PD-L1 3 mg/kg i.p. BIW x4
# Description: MC38 cells (Shunran (Shanghai) Biotechnology Co., Ltd.) were genetically modified to express the human B7H3 genes, thereby obtaining B-hB7-H3 MC38 cells. The cells were subcutaneously inoculated into C57BL/6 mice to establish a B-hB7-H3 MC38 tumour cell transplantation tumour model. When the tumours grew to approximately 140 mm^3, grouping for animal experiments was performed, a control group (G1: 0.9% sodium chloride injection), monotherapy groups (G2: ADC1 10 mg/kg group, G3: ADC1 3 mg/kg group, G4: anti-PD-L1 3 mg/kg group), and combination therapy groups (G5: group with ADC1 10 mg/kg in combination with anti-PD-L1 3 mg/kg, G6: group with ADC1 3 mg/kg in combination with anti-PD-L1 3 mg/kg) were established respectively, with 8 mice in each group. Dosing was performed according to the regimen in Table 1. The anti-PD-L1 drug was atezolizumab (Biocytogen). At the end of the experiment, therapeutic effects were evaluated according to the tumour growth inhibition (TGI), and tolerability was evaluated according to clinical observations, body weight changes, and mortality of the animals.
# Note: a: the dosing volume was calculated at […] based on the body weight of the experimental animals, and each drug injection was completed within 10 to 20 seconds. • b: BIW refers to administration twice weekly. When the combined treatment groups were dosed on the same day, there was no required sequence or dosing interval between the two drugs.
# Note: a: mean±standard error; b: statistical comparison of the tumour volume in the dosing groups versus the tumour volume in the G1 control group on Day 22 after grouping for dosing, one-way ANOVA analysis and Dunnett's test; ****p<0.0001. c: the tumour clearance proportion was counted according to the results on Day 25.
# [2] = tested on: recurrent or malignant cervical cancer; settings: treatment of recurrent or malignant cervical cancer; clinical; cited from earlier work
Substance,TGITV (%) ([1]; Day 22),"Tumour volume before dosing ([1]; baseline before dosing, mean)",Tumour clearance proportion ([1]; counted on Day 25),Tumour volume Day 22 after grouping for dosing ([1]; mean),ORR [2]
atezolizumab [Anti-PD-L1],22.4%,140 mm3,0/8,1689 mm3,
Tivdak: an ADC drug targeting TF,,,,,24%

# Reference: US20260256933A1, “METHOD FOR TREATING CANCER VIA ANTI-B7H3 ANTIBODY-DRUG CONJUGATE” (MediLink Therapeutics (Suzhou) Co., Ltd., priority 2023, published 2026)
